Consider one molecule from patent US20250107513A1, “METHOD FOR COUNTING EMBRYOS DEVELOPING IN A UTERUS OF CAENORHABDITIS ELEGANS” (Shanghai University, priority 2022, published 2025).

The series has as its system Caenorhabditis elegans. The series is described as follows: counting embryos developing in the uterus of Caenorhabditis elegans after TPHP exposure. Type of series: in vivo. As to conditions: then cultured until pregnancy, relative to the control group, p<0.01. As to the method:
As shown in a flowchart (FIG. 1) of a method in the present invention, this embodiment provides a method for counting embryos developing in a uterus of Caenorhabditis elegans exposed to a chemical of triphenyl phosphate (TPHP) for 72 hours, specifically including the following steps:
Step 5: Subject Caenorhabditis elegans to synchronization treatment. Nematode eggs are added dropwise to the NGM medium containing no E. coli, the nematode eggs are cultured at 20° C. for 16 to 20 hours under dark conditions, where Caenorhabditis elegans are in the L1 stage, and Caenorhabditis elegans at the stage are rinsed into a 1.5 mL centrifuge tube with the K solution 3 times.
Step 6: Prepare exposure solutions. 0.1000 g of TPHP solid is weighed accurately, the TPHP solid is dissolved in dimethyl sulfoxide until a concentration reaches 10 g/L, and then TPHP solutions are diluted with dimethyl sulfoxide again until concentrations reach 10 mg/L, 100 mg/L, 1000 mg/L and 5000 mg/L to be used as mother liquors later. Dimethyl sulfoxide is used as the mother liquor of the blank control group. The mother liquors are further diluted by 100 folds with the K solution and then diluting the diluted mother liquors by 100 folds with a K+ solution to finally obtain exposure solutions of Caenorhabditis elegans containing 0 μg/L (control group), 1 μg/L, 10 μg/L, 100 μg/L and 500 μg/L TPHP.
Step 7: Expose Caenorhabditis elegans to a TPHP solution. A prepared TPHP exposure solution is added to a sterile 6-well plate with 5 mL of prepared TPHP exposure solution per well. Caenorhabditis elegans at the L1 stage are then evenly added to the 6-well plate after the synchronization treatment, Caenorhabditis elegans are fed with 100 μg/L E. coli daily, and Caenorhabditis elegans are cultured for 72 hours.
Step 8: Select Caenorhabditis elegans at an exposure stage. The method in the present invention is applicable to pregnant Caenorhabditis elegans, and this is because Caenorhabditis elegans are […] after being exposed to TPHP for 72 hours. […]
Step 11: Count embryos in the uterus of Caenorhabditis elegans. The 24-well plate containing transparent Caenorhabditis elegans is put under an optical stereomicroscope, and exposed embryos of each Caenorhabditis elegans are counted, where exposed embryos of at least 25 nematodes are counted in each treatment group.
Step 12: Analyze data. Data is analyzed by using SPSS software, a confidence interval of samples is set to 95%, and an intra-group mean and mean error of the numbers of embryos developing in nematodes in different treatment groups are calculated, where the data can be selectively in a format of a mean percentage or multiple based on requirements of the experiment. […]

Regarding `O=P(Oc1ccccc1)(Oc1ccccc1)Oc1ccccc1` [TPHP, triphenyl phosphate], the “decrease in the numbers of embryos in the uteri” value runs as follows: (exposure to 1 μg/L TPHP from L1 stage for 72 hours) 14.2%; (exposure to 10 μg/L TPHP from L1 stage for 72 hours) 18.2%; (exposure to 100 μg/L TPHP from L1 stage for 72 hours) 18.1%; (exposure to 500 μg/L TPHP from L1 stage for 72 hours) 21.8%.
